Assay [1] relates to MN4 (DNA, aptamer) GGCGACAAGGAAAATCCTTCAACGAAGTGGGTCGCC
The experiment in a line: ITC. The settings on record: 140 mM NaCl, 5 mM KCl, 15 °C.

For assay [2], the system named is MN19 (DNA, aptamer) GACAAGGAAAATCCTTCAACGAAGTGGGTC
The assay can be described thus: UV melting, 260 nm. To be noted: 137 mM NaCl, 2.7 mM KCl; PBS pH 7.4, 3% acetonitrile; Tm of complex, free MN19 shows no transition.

Assay [3] has as its system MN4 (DNA, aptamer) GGCGACAAGGAAAATCCTTCAACGAAGTGGGTCGCC
The experiment in a line: ITC competition. The settings on record: 140 mM NaCl, 5 mM KCl; 20 mM TRIS pH 7.4, 1% DMSO, 15 °C; apparent; ART pre-bound 3:1, competitive binding model.

For assay [4], the system named is SRE RNA (RNA, hairpin) GGAGGCUCUGGCAGCUUUC
The assay can be described thus: ITC. To be noted: 140 mM NaCl, 5 mM KCl; 20 mM TRIS pH 7.4, 2.4% DMSO, 15 °C; 20 µM nucleic acid, 0.312 mM titrant.

Assay [5] has as its system Hexamer (DNA, duplex) CGTACG/CGTACG. The assay can be described thus: ITC. The settings on record: 140 mM NaCl, 5 mM KCl; 20 mM TRIS pH 7.4, 2.4% DMSO, 15 °C; site 1 of 2.
Assay [6] relates to OR7 (DNA, aptamer) CAAGGAAAATCCTTCAACGAAGTGGG
The experiment in a line: ITC. To be noted: 140 mM NaCl, 5 mM KCl; 20 mM TRIS pH 7.4, 2.4% DMSO, 15 °C; site 1 of 2.

Assay [7] has as its system Hybrid DNA/RNA (DNA:RNA, duplex) GACACCUGAUUC/GAATCAGGTGTC
The assay can be described thus: ITC. The settings on record: 140 mM NaCl, 5 mM KCl; 20 mM TRIS pH 7.4, 2.4% DMSO, 15 °C; 20 µM nucleic acid, 0.312 mM titrant.

Assay [8] deals with MN19-SITS (DNA, aptamer) GACAAGGAAAATCCTTCAACGAAGTGGGTC
The experiment in a line: photochrome aptamer switch assay (fluorescence decay). To be noted: 140 mM NaCl; 20 mM Tris pH 7.4, 3% DMSO, 20 °C; 0-4.2 µM ART.

The test system of assay [9] is MN19 (DNA, aptamer) GACAAGGAAAATCCTTCAACGAAGTGGGTC
The assay can be described thus: ITC. The settings on record: 140 mM NaCl, 5 mM KCl; 20 mM TRIS pH 7.4, 2.4% DMSO, 15 °C; site 1 of 2.

In assay [10] the test system is MN4 (DNA, aptamer) GGCGACAAGGAAAATCCTTCAACGAAGTGGGTCGCC
The assay can be described thus: native mass spectrometry with CID. To be noted: 300 mM ammonium acetate; pH 6.8; 10 µM aptamer, 100 µM ART; non-covalent.

Assay [11] concerns SS1 (DNA, junction) GGCGACGAGGAAAATCCTTCGACGAAGTAAGTCGCC
The assay can be described thus: ITC. To be noted: 140 mM NaCl, 5 mM KCl; 20 mM TRIS pH 7.4, 2.4% DMSO, 15 °C; site 1 of 2.

For assay [12], the system named is poly-dT (DNA, single strand) TTTTTTTTTTTT
The experiment in a line: ITC. To be noted: 140 mM NaCl, 5 mM KCl; 20 mM TRIS pH 7.4, 2.4% DMSO, 15 °C; 20 µM nucleic acid, 0.312 mM titrant.

Assay [13] deals with DDD (DNA, duplex) CGCGAATTCGCG/CGCGAATTCGCG
The experiment in a line: ITC. The settings on record: 140 mM NaCl, 5 mM KCl; 20 mM TRIS pH 7.4, 2.4% DMSO, 15 °C; site 1 of 2.

The subject of assay [14] is TWJ (DNA, junction) CGTGCAGCGGCTTGCCGGCACTTGTGCTTCTGCACG
The experiment in a line: ITC. The settings on record: 140 mM NaCl, 5 mM KCl; 20 mM TRIS pH 7.4, 2.4% DMSO, 15 °C; site 1 of 2.

In assay [15] the test system is MN4 (DNA, aptamer) GGCGACAAGGAAAATCCTTCAACGAAGTGGGTCGCC
The assay can be described thus: 1H NMR imino titration. To be noted: sodium phosphate, no added NaCl; 20 mM phosphate pH 7.4, 5 °C; slow exchange, shifts near three-way junction.

`C[C@@H]1CC[C@H]2[C@@H](C)C(=O)O[C@@H]3O[C@@]4(C)CC[C@@H]1[C@]32O4`: the binding result in assay [1] (20 mM TRIS pH 7.4, 1.5% DMSO, 20 µM aptamer, 0.312 mM titrant) is “no”.

In the case of `C=C[C@H]1CN2CC[C@H]1C[C@H]2[C@H](O)c1ccnc2ccc(OC)cc12`, the Tm in assay [2] is 36.4 ± 1.2 °C. In addition, in assay [3], the “Kd, app” value stood at 1.1 ± 0.1 µM.

On to `C[C@@H]1CC[C@H]2[C@@H](C)C(=O)O[C@@H]3O[C@@]4(C)CC[C@@H]1[C@]32OO4`, for which the binding result in [4] is reported as “no”; in [7], “no”; in [8], “yes”; in assay [10], “yes”; in assay [12], “no”; in assay [15] it was “yes”. For the same compound, the Kd1 worked out at 0.03 ± 0.01 µM in [1] (20 mM TRIS pH 7.4, 2.4% DMSO, site 1 of 2); 0.007 ± 0.004 µM in assay [5]; 0.03 ± 0.01 µM in [6]; 0.02 ± 0.01 µM in assay [9]; 0.004 ± 0.002 µM in [11]; 0.10 ± 0.03 µM in assay [13]. Also, the Kd1 in assay [14] turned out to be 0.06 ± 0.02 µM. For the same compound, the Tm in [2] amounted to 34.8 ± 1.1 °C.

The values are drawn from publication PMC8741894 (2022).
